Assay results published in ChEMBL document CHEMBL3259594, “Benzylpiperidine variations on histamine H3 receptor ligands for improved drug-likeness” (Bioorg Med Chem Lett, 2014).

Columns and labels:
Histamine H3 receptor [1] = molecular target: T1, Histamine H3 receptor (Homo sapiens, UniProt Q9Y5N1); experiment: Displacement of [3H]N-alpha-methylhistamine from recombinant human histamine H3 receptor expressed in HEK293 cells after 90 mins; assay type: cell-based
Histamine H3 receptor [2] = molecular target: T1, Histamine H3 receptor; experiment: Displacement of [125I]Iodoproxyfan from recombinant human histamine H3 receptor expressed in HEK293 cells after 90 mins; assay type: cell-based
Histamine H3 receptor [3] = molecular target: Histamine H3 receptor (Rattus norvegicus, UniProt Q9QYN8); experiment: Binding affinity to rat histamine H3 receptor
Histamine H3 receptor (Rattus norvegicus, UniProt Q9QYN8), sequence (Q9QYN8 whole entry): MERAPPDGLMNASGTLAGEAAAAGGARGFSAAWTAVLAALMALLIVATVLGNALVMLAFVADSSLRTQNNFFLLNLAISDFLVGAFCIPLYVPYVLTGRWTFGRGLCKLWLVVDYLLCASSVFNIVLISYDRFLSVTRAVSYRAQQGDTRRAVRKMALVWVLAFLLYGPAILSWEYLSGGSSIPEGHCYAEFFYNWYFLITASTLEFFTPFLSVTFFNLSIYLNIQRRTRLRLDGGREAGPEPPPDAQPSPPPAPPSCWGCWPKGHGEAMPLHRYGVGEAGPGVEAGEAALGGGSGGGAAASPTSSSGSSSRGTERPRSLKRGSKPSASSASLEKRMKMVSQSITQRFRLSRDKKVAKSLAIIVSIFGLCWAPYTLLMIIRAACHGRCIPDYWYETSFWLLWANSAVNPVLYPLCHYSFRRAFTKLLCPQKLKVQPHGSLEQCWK

T1 sequence (Q9Y5N1 whole entry): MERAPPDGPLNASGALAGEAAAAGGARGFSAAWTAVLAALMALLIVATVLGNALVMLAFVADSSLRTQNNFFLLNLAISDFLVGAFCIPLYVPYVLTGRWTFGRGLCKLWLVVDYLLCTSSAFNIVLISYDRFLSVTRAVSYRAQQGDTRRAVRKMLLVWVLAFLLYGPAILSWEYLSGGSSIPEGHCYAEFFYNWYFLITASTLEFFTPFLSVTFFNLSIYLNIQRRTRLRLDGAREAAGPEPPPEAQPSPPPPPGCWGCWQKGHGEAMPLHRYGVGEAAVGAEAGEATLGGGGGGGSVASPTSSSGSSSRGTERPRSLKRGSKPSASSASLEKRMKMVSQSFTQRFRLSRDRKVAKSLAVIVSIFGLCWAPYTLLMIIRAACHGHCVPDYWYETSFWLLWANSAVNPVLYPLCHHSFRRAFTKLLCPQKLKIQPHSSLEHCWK

Ki (Histamine H3 receptor [1]) [nM] | Ki (Histamine H3 receptor [2]) [nM] | SMILES | also measured
12.9 |  | O=C(O)C1CCN(Cc2ccc(OCCCN3CCCCC3)cc2)CC1 | 
0.589 |  | OC1CCN(Cc2ccc(OCCCN3CCCCC3)cc2)CC1 | 
 | 2.04 | c1cc(OCCCN2CCCCC2)ccc1CN1CCC2(CC1)OCCO2 | 
0.229 |  | CCOC(=O)C1CCN(Cc2ccc(OCCCN3CCCCC3)cc2)CC1 | 
 | 11 | C#CCNC(=O)C1CCN(Cc2ccc(OCCCN3CCCCC3)cc2)CC1 | 

Further lines, the molecule ahead of its results:

SMILES | Ki (Histamine H3 receptor [1]) [nM] | Ki (Histamine H3 receptor [2]) [nM] | also measured
OCC1CCN(Cc2ccc(OCCCN3CCCCC3)cc2)CC1 | 0.676 |  | 
O=C1CCN(Cc2ccc(OCCCN3CCCCC3)cc2)CC1 |  | 2.51 | 
CCNC(=O)C1CCN(Cc2ccc(OCCCN3CCCCC3)cc2)CC1 |  | 2.95 | 
Cc1nnc(C2CCN(Cc3ccc(OCCCN4CCCCC4)cc3)CC2)o1 | 0.479 |  | 
c1cc(OCCCN2CCCCC2)ccc1CN1CCCCC1 [JNJ-5207852] |  |  | Ki (Histamine H3 receptor [3]): 0.58 nM
c1ccc2c(c1)CCN(Cc1ccc(OCCCN3CCCCC3)cc1)C2 |  | 2.95 | 
